Test system: SW 982 tumor spheroid viability
Assay: Anticancer human tumor SW 982 cell line growth inhibition;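 note: spheroids exposed to compound for 7 days before readout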
Details: spheroids with HUVEC and MSC; for IC50: curve of first compound; for viability, T/C: stronger effect = lower value
Procedure, shortened: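 Complex spheroids of malignant cells with endothelial cells and mesenchymal stem cells; agents alone or combined, from near clinical Cmax (or 10 microM if unknown) down in half-log steps, 0.25% DMSO final.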

[1] = second compound 30 pM, first compound 0.0316 µM
[2] = second compound 30 pM, first compound 0.1 µM
[3] = second compound 30 pM, first compound 0.316 µM
[4] = second compound 30 pM, first compound 1 µM
[5] = second compound 30 pM, first compound 3.16 µM
[6] = second compound 30 pM, first compound 10 µM
[7] = second compound 94.9 pM, first compound 0.0316 µM
[8] = second compound 94.9 pM, first compound 0.1 µM
[9] = second compound 94.9 pM, first compound 0.316 µM
[10] = second compound 94.9 pM, first compound 1 µM
[11] = second compound 94.9 pM, first compound 3.16 µM
[12] = second compound 94.9 pM, first compound 10 µM
[13] = second compound 0.0003 µM, first compound 0.0316 µM
[14] = second compound 0.0003 µM, first compound 0.1 µM
[15] = second compound 0.0003 µM, first compound 0.316 µM
[16] = second compound 0.0003 µM, first compound 1 µM
[17] = second compound 0.0003 µM, first compound 3.16 µM
[18] = second compound 0.0003 µM, first compound 10 µM
[19] = second compound 0.000949 µM, first compound 0.0316 µM
[20] = second compound 0.000949 µM, first compound 0.1 µM
[21] = second compound 0.000949 µM, first compound 0.316 µM
[22] = second compound 0.000949 µM, first compound 1 µM
[23] = second compound 0.000949 µM, first compound 3.16 µM
[24] = second compound 0.000949 µM, first compound 10 µM
[25] = second compound 0.003 µM, first compound 0.0316 µM
[26] = second compound 0.003 µM, first compound 0.1 µM
[27] = second compound 0.003 µM, first compound 0.316 µM
[28] = second compound 0.003 µM, first compound 1 µM
[29] = second compound 0.003 µM, first compound 3.16 µM
[30] = second compound 0.003 µM, first compound 10 µM

**Q.** `CC(C)n1c(=O)n(C)c2cnc3cc(F)c(-c4ccc(OCCCN5CCCCC5)nc4)cc3c21` + COc1cc2c(cc1O)CCNC21CSC2c3c(OC(C)=O)c(C)c4c(c3C(COC1=O)N1C(O)C3Cc5cc(C)c(OC)c(O)c5C(C21)N3C)OCO4 was tested. Which IC50 (second compound 30 pM) did it give?
**A.** Its IC50 is 2.85 µM.

**Q.** What about the IC50 (second compound 94.9 pM) of the same compound?
**A.** Its IC50 is 5.66 µM.

**Q.** And the IC50 (second compound 0.0003 µM)?
**A.** Its IC50 is 2.45 µM.

**Q.** What about the IC50 (second compound 0.000949 µM) of the same compound?
**A.** Its IC50 is less than 0.0316 µM.

**Q.** What about the IC50 (second compound 0.003 µM) of the same compound?
**A.** Its IC50 is less than 0.0316 µM.

**Q.** And the viability, T/C [1]?
**A.** Its viability, T/C is 83.8%.

**Q.** And the viability, T/C [2]?
**A.** The viability, T/C was 87.3%.

**Q.** And the viability, T/C [3]?
**A.** The viability, T/C was 83.9%.

**Q.** What about the viability, T/C [4] of the same compound?
**A.** Its viability, T/C is 76.5%.

**Q.** What about the viability, T/C [5] of the same compound?
**A.** The viability, T/C was 47.3%.

**Q.** What about the viability, T/C [6] of the same compound?
**A.** The viability, T/C was 42.7%.

**Q.** What about the viability, T/C [7] of the same compound?
**A.** Its viability, T/C is 80.6%.

**Q.** What about the viability, T/C [8] of the same compound?
**A.** Its viability, T/C is 80.5%.

**Q.** And the viability, T/C [9]?
**A.** The viability, T/C was 79.1%.

**Q.** What about the viability, T/C [10] of the same compound?
**A.** The viability, T/C was 75.1%.

**Q.** And the viability, T/C [11]?
**A.** Its viability, T/C is 59.8%.

**Q.** And the viability, T/C [12]?
**A.** Its viability, T/C is 40.4%.

**Q.** What about the viability, T/C [13] of the same compound?
**A.** Its viability, T/C is 69.2%.

**Q.** What about the viability, T/C [14] of the same compound?
**A.** Its viability, T/C is 65.5%.

**Q.** What about the viability, T/C [15] of the same compound?
**A.** The viability, T/C was 72.4%.

**Q.** What about the viability, T/C [16] of the same compound?
**A.** The viability, T/C was 64.5%.

**Q.** And the viability, T/C [17]?
**A.** The viability, T/C was 45.9%.

**Q.** And the viability, T/C [18]?
**A.** Its viability, T/C is 37%.

**Q.** What about the viability, T/C [19] of the same compound?
**A.** The viability, T/C was 32.3%.

**Q.** And the viability, T/C [20]?
**A.** Its viability, T/C is 30.3%.

**Q.** What about the viability, T/C [21] of the same compound?
**A.** Its viability, T/C is 30.6%.

**Q.** What about the viability, T/C [22] of the same compound?
**A.** The viability, T/C was 43.6%.

**Q.** And the viability, T/C [23]?
**A.** Its viability, T/C is 33.8%.

**Q.** And the viability, T/C [24]?
**A.** Its viability, T/C is 21.6%.

**Q.** What about the viability, T/C [25] of the same compound?
**A.** The viability, T/C was 0.57%.

**Q.** And the viability, T/C [26]?
**A.** Its viability, T/C is 0.53%.

**Q.** And the viability, T/C [27]?
**A.** The viability, T/C was 0.47%.

**Q.** And the viability, T/C [28]?
**A.** Its viability, T/C is 0.5%.

**Q.** What about the viability, T/C [29] of the same compound?
**A.** Its viability, T/C is 0.57%.

**Q.** And the viability, T/C [30]?
**A.** The viability, T/C was 0.64%.

**Q.** What does the source list for `CC1COCCN1c1cc(-c2ccnn2C)c2ccnc(-c3ccn[nH]3)c2n1` (stereo not given) + COc1cc2c(cc1O)CCNC21CSC2c3c(OC(C)=O)c(C)c4c(c3C(COC1=O)N1C(O)C3Cc5cc(C)c(OC)c(O)c5C(C21)N3C)OCO4?
**A.** IC50 (second compound 30 pM): < 0.0316 µM; IC50 (second compound 94.9 pM): < 0.0316 µM; IC50 (second compound 0.0003 µM): < 0.0316 µM; IC50 (second compound 0.000949 µM): < 0.0316 µM; IC50 (second compound 0.003 µM): < 0.0316 µM; viability, T/C [1]: 30.3%; viability, T/C [2]: 21.2%; viability, T/C [3]: 16.3%; viability, T/C [4]: 14.8%; viability, T/C [5]: 16.5%; viability, T/C [6]: 19.5%; viability, T/C [7]: 28%; viability, T/C [8]: 19.8%; viability, T/C [9]: 14.6%; viability, T/C [10]: 12.7%; viability, T/C [11]: 16.6%; viability, T/C [12]: 18.9%; viability, T/C [13]: 18.7%; viability, T/C [14]: 16.3%; viability, T/C [15]: 12.6%; viability, T/C [16]: 10.9%; viability, T/C [17]: 14.7%; viability, T/C [18]: 14.6%; viability, T/C [19]: 13.8%; viability, T/C [20]: 10.5%; viability, T/C [21]: 6.7%; viability, T/C [22]: 4.79%; viability, T/C [23]: 3.55%; viability, T/C [24]: 1.4%; viability, T/C [25]: 1.23%; viability, T/C [26]: 1.25%; viability, T/C [27]: 0.44%; viability, T/C [28]: 0.7%; viability, T/C [29]: 0.39%; viability, T/C [30]: 0.98%

**Q.** For `COc1cc(C)[nH]c(=O)c1CN1CCc2c(Cl)cc(C(OC)C3COC3)c(Cl)c2C1=O` (stereo not given) + COc1cc2c(cc1O)CCNC21CSC2c3c(OC(C)=O)c(C)c4c(c3C(COC1=O)N1C(O)C3Cc5cc(C)c(OC)c(O)c5C(C21)N3C)OCO4, which IC50 (second compound 30 pM) is on record?
**A.** Its IC50 is greater than 10 µM.

**Q.** And the IC50 (second compound 94.9 pM)?
**A.** The IC50 was greater than 10 µM.

**Q.** What about the IC50 (second compound 0.0003 µM) of the same compound?
**A.** The IC50 was greater than 10 µM.

**Q.** And the IC50 (second compound 0.000949 µM)?
**A.** The IC50 was less than 0.0316 µM.

**Q.** What about the IC50 (second compound 0.003 µM) of the same compound?
**A.** The IC50 was less than 0.0316 µM.

**Q.** What about the viability, T/C [1] of the same compound?
**A.** The viability, T/C was 98.5%.

**Q.** And the viability, T/C [2]?
**A.** Its viability, T/C is 107%.

**Q.** And the viability, T/C [3]?
**A.** The viability, T/C was 90.2%.

**Q.** What about the viability, T/C [4] of the same compound?
**A.** The viability, T/C was 97.7%.

**Q.** And the viability, T/C [5]?
**A.** The viability, T/C was 102%.

**Q.** What about the viability, T/C [6] of the same compound?
**A.** The viability, T/C was 107%.

**Q.** And the viability, T/C [7]?
**A.** The viability, T/C was 90.5%.

**Q.** What about the viability, T/C [8] of the same compound?
**A.** Its viability, T/C is 95.6%.

**Q.** And the viability, T/C [9]?
**A.** Its viability, T/C is 95.7%.

**Q.** What about the viability, T/C [10] of the same compound?
**A.** The viability, T/C was 103%.

**Q.** What about the viability, T/C [11] of the same compound?
**A.** Its viability, T/C is 99.8%.

**Q.** What about the viability, T/C [12] of the same compound?
**A.** Its viability, T/C is 91.7%.

**Q.** What about the viability, T/C [13] of the same compound?
**A.** The viability, T/C was 86.9%.

**Q.** What about the viability, T/C [14] of the same compound?
**A.** Its viability, T/C is 82.9%.

**Q.** What about the viability, T/C [15] of the same compound?
**A.** Its viability, T/C is 89.1%.

**Q.** What about the viability, T/C [16] of the same compound?
**A.** Its viability, T/C is 91.3%.

**Q.** And the viability, T/C [17]?
**A.** Its viability, T/C is 84.7%.

**Q.** What about the viability, T/C [18] of the same compound?
**A.** Its viability, T/C is 85.3%.

**Q.** What about the viability, T/C [19] of the same compound?
**A.** The viability, T/C was 38.3%.

**Q.** And the viability, T/C [20]?
**A.** Its viability, T/C is 48.7%.

**Q.** What about the viability, T/C [21] of the same compound?
**A.** The viability, T/C was 38%.

**Q.** What about the viability, T/C [22] of the same compound?
**A.** Its viability, T/C is 45.6%.

**Q.** And the viability, T/C [23]?
**A.** Its viability, T/C is 47.3%.

**Q.** And the viability, T/C [24]?
**A.** The viability, T/C was 28.3%.

**Q.** And the viability, T/C [25]?
**A.** The viability, T/C was 0.42%.

**Q.** What about the viability, T/C [26] of the same compound?
**A.** The viability, T/C was 0.99%.

**Q.** And the viability, T/C [27]?
**A.** The viability, T/C was 0.77%.

**Q.** And the viability, T/C [28]?
**A.** The viability, T/C was 0.49%.

**Q.** And the viability, T/C [29]?
**A.** The viability, T/C was 0.64%.

**Q.** What about the viability, T/C [30] of the same compound?
**A.** Its viability, T/C is 1.1%.

Reference: PubChem BioAssay AID1845216 (Molecular Pharmacology Branch, DTP, NCI, 2023)
